The record followed here is patent US7217710B2, “Substituted pyrazolopyrimidines” (SmithKline Beecham Corporation, priority 2001, dated 2007).

The target in assay [1] is T1, GST-TIE2 (intracellular domains of human TIE2) (Homo sapiens, UniProt Q02763).
T1 construct: made in house
Put plainly: TIE-2 Enzyme Assay (TIE2-E2), LANCE method. The assay is classed as biochemical. As to conditions: for IC50: read-out: TIE2 PIC50 TIE2-E2 assay. The method, boiled down: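 GST-tagged human TIE2 intracellular domain (aa 762–1104), preactivated 2 h with 80 μM ATP, then 5 nM enzyme run 2 h at room temperature with 1 μM biotinylated D1–15 peptide, 80 μM ATP, HEPES pH 7.4, 2.4% DMSO. Phosphotyrosine detected by LANCE (Eu anti-pTyr/streptavidin-APC) after EDTA stop; IC50 by nonlinear regression, reported as pIC50.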

For assay [2], the target named is T2, GST-VEGFR2 (Homo sapiens, UniProt P35968).
T2 construct: GST-VEGFR2, baculovirus expressed recombinant constructs of the intracellular domains; made in house
T2 sequence (P35968 786-1356 limits assumed): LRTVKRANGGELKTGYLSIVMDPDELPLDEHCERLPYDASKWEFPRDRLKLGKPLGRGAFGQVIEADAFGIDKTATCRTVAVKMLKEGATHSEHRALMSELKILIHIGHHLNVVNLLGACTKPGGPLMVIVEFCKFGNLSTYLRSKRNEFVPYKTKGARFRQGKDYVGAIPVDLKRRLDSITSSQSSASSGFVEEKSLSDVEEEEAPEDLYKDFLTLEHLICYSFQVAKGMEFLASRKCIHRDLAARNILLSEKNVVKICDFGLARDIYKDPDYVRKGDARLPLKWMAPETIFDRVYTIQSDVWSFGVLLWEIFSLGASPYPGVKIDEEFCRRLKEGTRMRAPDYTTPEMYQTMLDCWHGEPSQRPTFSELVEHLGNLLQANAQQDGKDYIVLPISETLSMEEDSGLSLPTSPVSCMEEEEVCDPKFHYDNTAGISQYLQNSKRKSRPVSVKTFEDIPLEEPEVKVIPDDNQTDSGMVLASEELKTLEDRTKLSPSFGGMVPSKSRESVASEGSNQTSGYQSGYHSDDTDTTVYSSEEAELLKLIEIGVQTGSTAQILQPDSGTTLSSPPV
Put plainly: VEGF-R2 Enzyme Assay (VEGF-E2), LANCE method. The class given is biochemical. As to conditions: for IC50: read-out: VEGFR2 PIC50 VEGFR-E2 assay.

In assay [3] the target is T3, TIE2 intracellular domain/c-fms extracellular domain (TIE2/c-fms) chimeric protein (Homo sapiens, UniProt Q02763).
T3 construct: fused on or other part: c-fms (CSF1R) extracellular domain in place of TIE2's own ectodomain; it serves as the capture handle for the anti-c-fms ELISA; P07333 (Macrophage colony-stimulating factor 1 receptor)
T3 sequence (Q02763 whole entry, change not shown, the tested form may be a part): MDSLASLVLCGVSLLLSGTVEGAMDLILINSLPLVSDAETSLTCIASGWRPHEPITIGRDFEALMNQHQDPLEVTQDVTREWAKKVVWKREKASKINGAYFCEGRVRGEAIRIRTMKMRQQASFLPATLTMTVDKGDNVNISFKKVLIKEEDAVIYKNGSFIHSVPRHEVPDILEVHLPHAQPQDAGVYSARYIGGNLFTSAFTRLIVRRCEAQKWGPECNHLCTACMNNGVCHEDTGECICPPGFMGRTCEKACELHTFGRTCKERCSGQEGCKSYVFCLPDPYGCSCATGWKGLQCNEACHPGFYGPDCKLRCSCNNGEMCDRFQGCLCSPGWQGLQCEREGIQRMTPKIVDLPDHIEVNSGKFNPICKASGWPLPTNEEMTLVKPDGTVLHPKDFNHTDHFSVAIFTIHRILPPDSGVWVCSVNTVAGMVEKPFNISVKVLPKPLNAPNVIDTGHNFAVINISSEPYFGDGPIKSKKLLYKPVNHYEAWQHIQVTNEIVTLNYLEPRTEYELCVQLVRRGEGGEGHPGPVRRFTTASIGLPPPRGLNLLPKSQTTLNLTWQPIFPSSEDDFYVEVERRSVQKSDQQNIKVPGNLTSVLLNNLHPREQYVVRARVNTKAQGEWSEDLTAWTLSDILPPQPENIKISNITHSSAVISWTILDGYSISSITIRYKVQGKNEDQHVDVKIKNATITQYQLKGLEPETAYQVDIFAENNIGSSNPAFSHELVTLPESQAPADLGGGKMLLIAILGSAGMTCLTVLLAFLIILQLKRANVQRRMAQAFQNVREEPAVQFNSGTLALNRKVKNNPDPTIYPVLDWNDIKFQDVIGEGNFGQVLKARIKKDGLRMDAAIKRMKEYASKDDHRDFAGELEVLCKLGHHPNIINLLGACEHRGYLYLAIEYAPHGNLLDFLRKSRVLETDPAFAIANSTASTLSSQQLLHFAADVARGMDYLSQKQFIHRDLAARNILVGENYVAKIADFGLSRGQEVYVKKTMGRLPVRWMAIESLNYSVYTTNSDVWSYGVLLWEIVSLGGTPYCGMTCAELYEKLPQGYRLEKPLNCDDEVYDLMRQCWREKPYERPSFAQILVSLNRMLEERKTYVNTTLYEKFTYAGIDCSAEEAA
Description: TIE-2 Autophosphorylation Assay (TIE2-C). As to conditions: TIE2/c-fms expressing mouse 3T3 cells. The class given is cell-based. The method, then: TIE-2 Autophosphorylation Assay (TIE2-C)
The TIE-2 autophosphorylation assay uses an ELISA method and a TIE2 intracellular domain/c-fms extracellular domain (TIE2/c-fms) chimeric protein expressing mouse 3T3 cell line. This assay measures the autophosphorylation level of TIE2 protein expressed in cells. The cells are cultured in 96 well plates and grown in high glucose DMEM containing 10% serum at 37° C. in a humidified 10% CO2, 90% air incubator. On the day of the assay, the serum containing medium is removed from the cells and replaced with serum free medium for one hour. The test compound (diluted from a 10 mM stock in DMSO, final DMSO concentration is 0.1%) is incubated with TIE2/c-fms expressing cells for 30 minutes in serum free DMEM. Intrinsic cellular dephosphorylation of the receptor is blocked by the addition of the tyrosine phosphatase inhibitor, sodium orthovanadate, from a 100 mM aqueous stock to a final concentration of 1 mM. The culture media is removed by aspiration and the cells incubated for 30 to 60 mins on ice with lysis buffer containing 137 mM NaCl, 2 mM EDTA, 10% glycerol, 1 mM sodium ortho vanadate, 1×tyrosine phosphatase inhibitor cocktail (Sigma) and complete protease inhibitor cocktail (Roche) in 20 mM Tris-HCl (pH8.0). The cell extracts are transferred into Rat anti-c-fms antibody (Zymed-clone 12-2d6) ([…]) coated 96 well plates and incubated for 12 hrs at 4 degrees. The extracts are removed by aspiration and the plate, washed in a buffer comprising PBS, 0.05% Tween-20, 0.05% NP-40 and 5% SuperBlock (Pierce) followed by incubation with an HRP (horseradish peroxidase) conjugated anti-phosphotyrosine antibody, (Upstate Biotech) The plates are again washed with the aforementioned wash buffer and the colorimetric HRP substrate, TMB is added. The reaction progresses for 90 seconds and is stopped with the addition of 2M H2SO4. The optical density at 450 nm derived from HRP catalyzed TMB is measured with a plate reader capable of reading at the appropriate wavelength (e.g. SpectroMax from Molecular Dynamics). The percent inhibition of activity is calculated relative to non-vanadate treated control wells. The concentration of test compound that inhibits 50% of activity (IC50) is interpolated using nonlinear regression (Levernberg-Marquardt) and the equation, y=Vmax (1−x/(K+x))+Y2, where “K” is equal to the IC50.

Assay [4] deals with T4, catalytic domain of human VEGFR3 (Homo sapiens, UniProt P35916, H890Q).
T4 construct: made in house; host or cells: Sf9 insect cells (baculovirus, pFastBac1)
T4 sequence (P35916 with tags, fused parts or gaps isoform P35916-1 H890Q): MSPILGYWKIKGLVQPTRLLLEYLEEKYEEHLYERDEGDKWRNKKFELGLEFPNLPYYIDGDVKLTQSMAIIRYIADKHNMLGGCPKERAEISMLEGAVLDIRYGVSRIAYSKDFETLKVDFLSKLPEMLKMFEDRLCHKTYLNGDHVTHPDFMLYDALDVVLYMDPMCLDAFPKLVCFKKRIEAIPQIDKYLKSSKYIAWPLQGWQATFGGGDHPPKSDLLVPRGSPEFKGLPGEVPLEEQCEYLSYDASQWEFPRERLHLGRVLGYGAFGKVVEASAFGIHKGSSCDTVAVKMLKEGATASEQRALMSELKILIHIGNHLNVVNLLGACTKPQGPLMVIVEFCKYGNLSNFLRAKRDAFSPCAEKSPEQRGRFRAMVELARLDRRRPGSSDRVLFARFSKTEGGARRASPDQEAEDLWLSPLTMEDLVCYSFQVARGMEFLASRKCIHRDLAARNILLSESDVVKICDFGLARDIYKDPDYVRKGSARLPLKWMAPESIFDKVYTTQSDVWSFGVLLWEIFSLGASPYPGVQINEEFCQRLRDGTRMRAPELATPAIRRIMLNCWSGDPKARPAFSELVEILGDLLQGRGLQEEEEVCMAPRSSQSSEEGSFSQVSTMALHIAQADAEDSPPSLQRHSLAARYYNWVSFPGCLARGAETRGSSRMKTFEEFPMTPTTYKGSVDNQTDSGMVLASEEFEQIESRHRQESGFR
Put plainly: VEGFR-3 Homogenous Time-Resolved Fluorescence Assay (VEGFR-3-HTRF). The assay is classed as biochemical. As to conditions: for IC50: read-out: VEGFR3 PIC50 VEGFR-3-HTRF assay. The method, boiled down: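 GST-tagged human VEGFR3 catalytic domain (aa 819–1298, Sf9-expressed), pre-autophosphorylated 45 min with ATP/Mg, then 1 nM enzyme with 0.36 μM biotinylated peptide, 75 μM ATP, 10 mM MgCl2, pH 7.2, 1.5 h at room temperature. EDTA stop; HTRF detection; IC50 from hyperbolic fit of % control.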

Assay [5] has as its target Recombinant GST-Tie2 (Homo sapiens, UniProt Q02763). Put plainly: Tie2 Fluorescence Polarization Kinase Activity Assay (TIE2-FP). The assay is classed as biochemical. Here is the method:
Tie2 Fluorescence Polarization Kinase Activity Assay: (TIE2-FP)
Activation of Recombinant Tie2 Activation:
Recombinant GST-Tie2 is activated by incubating the enzyme in 20 mM Tris-HCl, pH 7.5, 12 mM MgCl2, 100 mM NaCl, 20 μM sodium vanidate, 1 mM DTT and 300 μM ATP at room temperature for 2 hours. The activation mixture is then passed through a NAP-25 desalting column (Pharmacia Biotech cat. no. 17-0852-02) to remove the free ATP. The activated enzyme is stored as aliquots at −80° C. in 20 mM Tris-HCl, pH 7.5 and 100 mM NaCl.
The final assay conditions are 50 mM HEPES, pH 7.5, 5% DMSO (when screening compounds), 200 μM ATP, 5 mM MgCl2, 1 mM DTT, 50 μM sodium vanidate, 1 nM activated enzyme, and 200 μM peptide. IC50's of compounds are measured under subsaturating ATP (200 μM) and varying concentrations of activated Tie2 and peptide substrate (RFWKYEFWR-OH; MW 1873 Da, TFA salt). Panvera Anti-phosphotyrosine antibody (Cat#P2840) and PTK Green Tracer (Cat#P2842) are used to detect the phosphorylated peptide. Polarization is measured on a TECAN Polarion in 138-second cycles for 30 minutes at room temperature. IC50's are then determined from the % polarization using normal calculation methods. The IC50 values are converted to pIC50 values, i.e., −log IC50 in Molar concentration.

Sequence of Recombinant GST-Tie2 (Q02763 23-1124): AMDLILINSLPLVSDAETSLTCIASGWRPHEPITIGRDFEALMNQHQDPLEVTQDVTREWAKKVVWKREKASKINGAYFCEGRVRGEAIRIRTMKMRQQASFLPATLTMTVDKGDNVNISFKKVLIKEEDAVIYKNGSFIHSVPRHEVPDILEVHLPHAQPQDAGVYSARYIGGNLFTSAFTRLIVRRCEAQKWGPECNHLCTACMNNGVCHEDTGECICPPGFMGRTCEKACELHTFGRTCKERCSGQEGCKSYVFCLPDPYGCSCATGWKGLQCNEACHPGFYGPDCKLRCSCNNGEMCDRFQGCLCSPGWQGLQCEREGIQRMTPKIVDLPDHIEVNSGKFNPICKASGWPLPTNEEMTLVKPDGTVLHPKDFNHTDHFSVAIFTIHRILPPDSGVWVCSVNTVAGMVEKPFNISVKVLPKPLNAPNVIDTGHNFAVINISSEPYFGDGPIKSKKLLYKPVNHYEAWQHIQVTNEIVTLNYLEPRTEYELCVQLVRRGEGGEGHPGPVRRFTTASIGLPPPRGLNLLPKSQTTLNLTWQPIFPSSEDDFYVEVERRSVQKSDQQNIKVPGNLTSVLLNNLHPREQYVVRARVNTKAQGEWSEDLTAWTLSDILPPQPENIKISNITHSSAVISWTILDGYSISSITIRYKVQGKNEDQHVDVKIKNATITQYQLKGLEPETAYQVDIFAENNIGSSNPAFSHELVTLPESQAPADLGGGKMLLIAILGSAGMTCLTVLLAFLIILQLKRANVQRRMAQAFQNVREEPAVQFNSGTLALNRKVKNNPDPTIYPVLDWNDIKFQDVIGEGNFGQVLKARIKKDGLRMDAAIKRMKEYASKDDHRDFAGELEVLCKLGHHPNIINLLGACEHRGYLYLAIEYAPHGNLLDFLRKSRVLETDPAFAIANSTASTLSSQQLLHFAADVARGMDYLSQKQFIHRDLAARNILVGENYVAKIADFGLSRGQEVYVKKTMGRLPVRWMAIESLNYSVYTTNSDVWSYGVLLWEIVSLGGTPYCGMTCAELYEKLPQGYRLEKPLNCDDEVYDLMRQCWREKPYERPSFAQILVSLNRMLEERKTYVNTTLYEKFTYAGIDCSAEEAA
T1 sequence (Q02763 762-1104): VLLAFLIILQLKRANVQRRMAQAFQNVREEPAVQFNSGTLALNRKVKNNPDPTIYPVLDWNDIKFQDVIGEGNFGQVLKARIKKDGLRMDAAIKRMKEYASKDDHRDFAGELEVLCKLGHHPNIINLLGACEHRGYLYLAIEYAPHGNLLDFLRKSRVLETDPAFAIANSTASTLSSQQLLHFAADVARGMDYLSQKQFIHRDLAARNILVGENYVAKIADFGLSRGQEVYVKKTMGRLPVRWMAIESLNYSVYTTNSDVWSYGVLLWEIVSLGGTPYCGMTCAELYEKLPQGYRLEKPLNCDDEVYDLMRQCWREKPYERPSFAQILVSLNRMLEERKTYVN

For the compound “1-(5-tert-Butyl-isoxazol-3-yl)-3-{2-fluoro-4-[1-methyl-6-(3-(imidazol-1-yl propylamino)-1H-pyrazolo[3,4-d]pyrimidin-3-yl)-phenyl]} urea [Example 139]”, in assay [1], the “TIE2 PIC50 TIE2-E2 assay” value is on record as “++++ (++++ = PIC50 = greater than or equal to 7.40)”. In addition, in assay [2], the “VEGFR2 PIC50 VEGFR-E2 assay” value is given as “+ (+ = PIC50 = 5.00 to less than 6.00)”. This compound also had an IC50 in assay [3] of 100 to 300 nM. Moreover, in assay [4], the “VEGFR3 PIC50 VEGFR-3-HTRF assay” value is given as “+ (+ = PIC50 = 5.00 to less than 6.00)”.

As to `Cn1nc(-c2ccc(NC(=O)Nc3cc(C(F)(F)F)ccc3F)cc2)c2cnc(NCCO)nc21` [Example 29, 1-(2-Fluoro-5-trifluoromethyl-phenyl)-3-{4-[(2-hydroxy-ethylamino)-methyl-1H-pyrazolo[3,4-d]pyrimidin-3-yl]-phenyl}-urea], the IC50 in assay [5] fell in the range of 100 to 300 nM.

On to `CCN(CC)CCNc1ncnc2c1c(-c1ccc(NC(=O)Nc3cc(C(F)(F)F)ccc3F)cc1)nn2C` [Example 33, 1-{4-[(2-Diethylamino-ethylamino)-methyl-1H-pyrazolo[3,4-d]pyrimidin-3-yl]-phenyl}-3-(2-fluoro-5-trifluoromethyl-phenyl)-urea], for which the IC50 in assay [5] was no less than 300 nM.

As for `Cn1nc(-c2ccc(NC(=O)Nc3cc(C(C)(C)C)on3)c(F)c2)c2cnc(NCCN3CCOCC3)nc21` [Example 57, 1-(5-tert-Butyl-isoxazol-3-yl)-3-{2-fluoro-4-[1-methyl-6-(2-morpholin-4-yl-ethylamino)-1H-pyrazolo[3,4-d]pyrimidin-3-yl]-phenyl}-urea], the IC50 in assay [1] was no more than 39.8 nM; in assay [2] it was 1000 to 10000 nM; in assay [3], 100 to 300 nM; in assay [4] it was 1000 to 10000 nM.

Turning to `CN1CCN(CCCNc2ncc3c(-c4ccc(NC(=O)Nc5cc(C(F)(F)F)ccc5F)cc4)nn(C)c3n2)CC1` [Example 64], the IC50 in assay [1] was no more than 39.8 nM; in assay [2], greater than 10000 nM; in assay [3], no less than 300 nM; in assay [4], greater than 10000 nM.

Consider `CC(C)n1nc(-c2ccc(NC(=O)Nc3cc(C(F)(F)F)ccc3F)cc2)c2cnc(NCCN3CCOCC3)nc21` [Example 78], for which the “TIE2 PIC50 TIE2-E2 assay” value in assay [1] is “+++ (+++ = PIC50 = 7.00 to less than 7.40)”. Moreover, in assay [2], the “VEGFR2 PIC50 VEGFR-E2 assay” value is “+ (+ = PIC50 = 5.00 to less than 6.00)”. In assay [3], this compound gave an IC50 of no less than 300 nM. Further, the “VEGFR3 PIC50 VEGFR-3-HTRF assay” value in assay [4] is on record as “+ (+ = PIC50 = 5.00 to less than 6.00)”.

With `Cn1nc(-c2ccc(NC(=O)Nc3cc(C(F)(F)F)ccc3F)cc2)c2cnc(NCCCN3CCOCC3)nc21` [Example 84], the IC50 in assay [1] was no more than 39.8 nM; in assay [2] it was 1000 to 10000 nM; in assay [3], no less than 300 nM; in assay [4] it was greater than 10000 nM.

Regarding `CC1CCCCN1CCCNc1ncc2c(-c3ccc(NC(=O)Nc4cc(C(F)(F)F)ccc4F)cc3)nn(C)c2n1` (stereo not drawn) [Example 85], the IC50 in assay [1] is no more than 39.8 nM; in assay [3], no less than 300 nM; in assay [4], greater than 10000 nM.

Take `Cn1nc(-c2ccc(NC(=O)Nc3cc(C(F)(F)F)ccc3F)cc2)c2cnc(NCCN3CCNC3=O)nc21` [Example 90]: the IC50 was 39.8 to 100 nM in assay [1], 1000 to 10000 nM in assay [2], no less than 300 nM in assay [3] and 1000 to 10000 nM in assay [4].

On to `Cn1nc(-c2ccc(NC(=O)Nc3cc(C(F)(F)F)ccc3F)cc2)c2cnc(NCCCCN3CCCC3)nc21` [Example 91, 1-(2-Fluoro-5-trifluoromethyl-phenyl)-3-{4-[1-methyl-6-[(4-pyrrolidin-1-yl)-butylamino]-1H-pyrazolo[3,4-d]pyrimidin-3-yl]-phenyl} urea], for which the IC50 in assay [1] was no more than 39.8 nM; in assay [2], 1000 to 10000 nM; in assay [3] it was 100 to 300 nM; in assay [4] it was 1000 to 10000 nM.

With `Cn1nc(-c2ccc(NC(=O)Nc3cc(C(F)(F)F)ccc3F)cc2)c2cnc(NCCCO)nc21` [Example 92, 1-(2-Fluoro-5-trifluoromethyl-phenyl)-3-{4-[1-methyl-6-(3-hydroxy-propylamino)-1H-pyrazolo[3,4-d]pyrimidin-3-yl]-phenyl} urea], the IC50 in assay [1] was no more than 39.8 nM; in assay [2], 1000 to 10000 nM; in assay [3], less than 100 nM; in assay [4], 1000 to 10000 nM.

Turning to `Cn1nc(-c2ccc(NC(=O)Nc3cc(C(F)(F)F)ccc3F)cc2)c2cnc(NCCCCO)nc21` [Example 93, 1-(2-Fluoro-5-trifluoromethyl-phenyl)-3-{4-[1-methyl-6-(4-hydroxy-butylamino)-1H-pyrazolo[3,4-d]pyrimidin-3-yl]-phenyl} urea], the IC50 is no more than 39.8 nM in assay [1], 1000 to 10000 nM in assay [2], 100 to 300 nM in assay [3] and 1000 to 10000 nM in assay [4].

Regarding `Cn1nc(-c2ccc(NC(=O)Nc3cc(C(F)(F)F)ccc3F)cc2)c2cnc(NCCCn3ccnc3)nc21` [Example 100, 1-(2-Fluoro-5-trifluoromethyl-phenyl)-3-{4-[1-methyl-6-(3-imidazol-1-yl-propylamino)-1H-pyrazolo[3,4-d]pyrimidin-3-yl]-phenyl} urea], the IC50 in assay [1] is no more than 39.8 nM; in assay [2] it was 100 to 1000 nM; in assay [3], no less than 300 nM; in assay [4], 1000 to 10000 nM.

As to `Cn1nc(-c2ccc(NC(=O)Nc3cc(C(C)(C)C)on3)c(F)c2)c2cnc(NCCCN3CCOCC3)nc21` [Example 134], the values for the IC50 in assay [1], in assay [2] and in assay [3] were no more than 39.8 nM, greater than 10000 nM and 100 to 300 nM, respectively.

Take `CN1CCN(CCCNc2ncc3c(-c4ccc(NC(=O)Nc5cc(C(C)(C)C)on5)c(F)c4)nn(C)c3n2)CC1` [Example 138]: the IC50 in assay [1] was no more than 39.8 nM; in assay [3], 100 to 300 nM.

Take `Cn1nc(-c2ccc(NC(=O)Nc3cc(C(F)(F)F)ccc3F)cc2)c2cnc(NCCc3c[nH]cn3)nc21` [Example 145]: the IC50 is 39.8 to 100 nM in assay [1], no less than 300 nM in assay [3] and 1000 to 10000 nM in assay [4].

Take `Cn1cncc1CCNc1ncc2c(-c3ccc(NC(=O)Nc4cc(C(F)(F)F)ccc4F)cc3)nn(C)c2n1` [Example 146, 1-(2-Fluoro-5-trifluoromethyl-phenyl)-3-{4-[(1-methyl-6-(2-[3-methyl-3H-imidazol-4-yl)-ethylamino)-1H-pyrazolo[3,4-d]pyrimidin-3-yl]-phenyl]} urea]: the IC50 was 39.8 to 100 nM in assay [1], no less than 300 nM in assay [3] and 100 to 1000 nM in assay [4].

On to `Cn1nc(-c2ccc(NS(=O)(=O)c3cccc(Cl)c3Cl)cc2)c2cnc(NCCN3CCOCC3)nc21` [Example 147], for which, in assay [5], the inhibition at 10 µM came out at 49%.
